Data published in PubChem BioAssay AID248 (DTP/NCI, 2004).
Several values for one entry are separate records, joined by “and”; a condition that tells them apart may be missing. Equal values may be shown once. Inconclusive results and toxic doses are left out. Rule as the data show it: active = T/C of 150% or more; inactive = T/C below 125%.

System: L1210 leukemia ip in BDF1 mice, survival T/C
Assay: NCI In Vivo Anticancer Drug Screen. Data for tumor model L1210 Leukemia (intraperitoneal) in B6D2F1 (BDF1) mice
Settings: endpoint: mean survival time, higher = longer survival
Outline: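 Survival endpoint. Drug-treated group vs vehicle group, expressed as T divided by C. Tumor passaged by transplantation.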

[1] = dose: 100.0 mg/kg/injection, schedule: Q04DX003 (ip), vehicle: saline with Tween-80
[2] = dose: 100.0 mg/kg/injection, schedule: Q01DX009 (ip), vehicle: saline
[3] = dose: 100.0 mg/kg/injection, schedule: Q04DX003 (ip), vehicle: Klucel (hydroxypropylcellulose) (HPC)
[4] = dose: 200.0 mg/kg/injection, schedule: Q04DX003 (ip), vehicle: Klucel (hydroxypropylcellulose) (HPC)
[5] = dose: 400.0 mg/kg/injection, schedule: Q04DX003 (ip), vehicle: Klucel (hydroxypropylcellulose) (HPC)
[6] = dose: 100.0 mg/kg/injection, schedule: Q04DX002 (ip), vehicle: Klucel (hydroxypropylcellulose) (HPC)
[7] = dose: 200.0 mg/kg/injection, schedule: Q04DX002 (ip), vehicle: Klucel (hydroxypropylcellulose) (HPC)
[8] = dose: 200.0 mg/kg/injection, schedule: Q04DX003 (ip), vehicle: saline with Tween-80
[9] = dose: 400.0 mg/kg/injection, schedule: Q04DX003 (ip), vehicle: saline with Tween-80
[10] = dose: 400.0 mg/kg/injection, schedule: Q04DX002 (ip), vehicle: Klucel (hydroxypropylcellulose) (HPC)
[11] = dose: 100.0 mg/kg/injection, schedule: Q01DX001 (ip), vehicle: other
[12] = dose: 200.0 mg/kg/injection, schedule: Q01DX001 (ip), vehicle: other
[13] = dose: 400.0 mg/kg/injection, schedule: Q01DX001 (ip), vehicle: other

Measured: T/C

O=C(/C=C/c1cccc([N+](=O)[O-])c1)CCl
inactive: dose: 25.0 mg/kg/injection, schedule: Q04DX003 (ip), vehicle: saline with Tween-80 110 % of control | dose: 50.0 mg/kg/injection, schedule: Q04DX003 (ip), vehicle: saline with Tween-80 105 % of control | [1] 103 % of control and 104 % of control

c1ccc(N(c2ccccc2)N(c2ccccc2)c2ccccc2)cc1
inactive: dose: 12.5 mg/kg/injection, schedule: Q01DX009 (ip), vehicle: saline 90 % of control | dose: 50.0 mg/kg/injection, schedule: Q04DX003 (ip), vehicle: saline 89 % of control | dose: 100.0 mg/kg/injection, schedule: Q01DX001 (ip), vehicle: saline 88 % of control | dose: 200.0 mg/kg/injection, schedule: Q01DX001 (ip), vehicle: saline 88 % of control

COc1ccc([N+](=O)[O-])c(C=O)c1
inactive: [2] 101 % of control | dose: 100.0 mg/kg/injection, schedule: Q04DX003 (ip), vehicle: saline 97 % of control | dose: 200.0 mg/kg/injection, schedule: Q01DX009 (ip), vehicle: saline 98 % of control | dose: 200.0 mg/kg/injection, schedule: Q04DX003 (ip), vehicle: saline 100 % of control | dose: 400.0 mg/kg/injection, schedule: Q01DX009 (ip), vehicle: saline 101 % of control | dose: 400.0 mg/kg/injection, schedule: Q04DX003 (ip), vehicle: saline 103 % of control

CCCCc1ccc(O)c(O)c1O
inactive: dose: 50.0 mg/kg/injection, schedule: Q01DX001 (sc), vehicle: olive oil, sesame oil, peanut oil 117 % of control | dose: 100.0 mg/kg/injection, schedule: Q01DX001 (sc), vehicle: olive oil, sesame oil, peanut oil 101 % of control and 106 % of control | dose: 200.0 mg/kg/injection, schedule: Q01DX001 (sc), vehicle: olive oil, sesame oil, peanut oil 101 % of control and 105 % of control | dose: 400.0 mg/kg/injection, schedule: Q01DX001 (sc), vehicle: olive oil, sesame oil, peanut oil 108 % of control

CC(=O)C(C(=O)c1ccccc1)C(c1ccccc1)c1ccccc1 (stereo unspecified)
inactive: dose: 100.0 mg/kg/injection, schedule: Q01DX001 (ip), vehicle: Klucel (hydroxypropylcellulose) (HPC) 93 % of control | [3] 92 % of control | dose: 200.0 mg/kg/injection, schedule: Q01DX001 (ip), vehicle: Klucel (hydroxypropylcellulose) (HPC) 90 % of control | [4] 96 % of control | dose: 400.0 mg/kg/injection, schedule: Q01DX001 (ip), vehicle: Klucel (hydroxypropylcellulose) (HPC) 92 % of control | [5] 94 % of control

CCN1/C(=C/C=C/c2oc3ccccc3[n+]2CC)Oc2ccccc21
inactive: dose: 0.05 mg/kg/injection, schedule: Q04DX003 (ip), vehicle: Klucel (hydroxypropylcellulose) (HPC) 102 % of control | dose: 0.1 mg/kg/injection, schedule: Q04DX003 (ip), vehicle: Klucel (hydroxypropylcellulose) (HPC) 100 % of control | dose: 0.2 mg/kg/injection, schedule: Q01DX009 (ip), vehicle: saline 104 % of control | dose: 0.2 mg/kg/injection, schedule: Q04DX003 (ip), vehicle: Klucel (hydroxypropylcellulose) (HPC) 98 % of control | dose: 0.2 mg/kg/injection, schedule: Q04DX003 (ip), vehicle: saline 112 % of control | dose: 0.4 mg/kg/injection, schedule: Q01DX009 (ip), vehicle: saline 109 % of control | dose: 0.4 mg/kg/injection, schedule: Q04DX003 (ip), vehicle: Klucel (hydroxypropylcellulose) (HPC) 104 % of control | dose: 0.4 mg/kg/injection, schedule: Q04DX003 (ip), vehicle: saline 94 % of control | dose: 0.5 mg/kg/injection, schedule: Q01DX001 (ip), vehicle: saline 108 % of control | dose: 0.8 mg/kg/injection, schedule: Q01DX009 (ip), vehicle: saline 114 % of control | dose: 0.8 mg/kg/injection, schedule: Q04DX003 (ip), vehicle: saline 100 % of control | dose: 1.0 mg/kg/injection, schedule: Q01DX001 (ip), vehicle: saline 100 % of control | dose: 1.6 mg/kg/injection, schedule: Q04DX003 (ip), vehicle: saline 107 % of control | dose: 37.5 micrograms/kg/injection, schedule: Q01DX009 (ip), vehicle: Klucel (hydroxypropylcellulose) (HPC) 108 % of control | dose: 75.0 micrograms/kg/injection, schedule: Q01DX009 (ip), vehicle: Klucel (hydroxypropylcellulose) (HPC) 98 % of control | dose: 150.0 micrograms/kg/injection, schedule: Q01DX009 (ip), vehicle: Klucel (hydroxypropylcellulose) (HPC) 107 % of control | dose: 300.0 micrograms/kg/injection, schedule: Q01DX009 (ip), vehicle: Klucel (hydroxypropylcellulose) (HPC) 113 % of control

c1ccc(CN2C3CCCC2CC(c2ccccc2)C3)cc1 (stereo unspecified)
inactive: [6] 92 % of control | [7] 87 % of control

O=C(O)/C(=C\c1ccc(Cl)cc1)c1ccc(C(F)(F)F)cc1[N+](=O)[O-]
inactive: [1] 96 % of control | [8] 94 % of control | [9] 92 % of control

Cc1nc2nccnc2[nH]1
inactive: dose: 100.0 mg/kg/injection, schedule: Q01DX009 (ip), vehicle: saline sonified 100 % of control | [1] 96 % of control | dose: 200.0 mg/kg/injection, schedule: Q01DX009 (ip), vehicle: saline sonified 92 % of control | [8] 96 % of control | dose: 400.0 mg/kg/injection, schedule: Q01DX009 (ip), vehicle: saline sonified 96 % of control | [9] 96 % of control

Fc1cccc2ccc(Br)cc12
inactive: [3] 100 % of control | [4] 100 % of control | [5] 106 % of control

CC(=O)Oc1ccc(/C=C(\NC(=O)c2ccccc2)C(=O)O)cc1
inactive: [3] 95 % of control | [4] 91 % of control | [5] 91 % of control

Cc1ccc([N+](=O)[O-])cc1NC(=O)Nc1cc(Cl)ccc1O
inactive: dose: 100.0 mg/kg/injection, schedule: Q01DX009 (ip), vehicle: Klucel (hydroxypropylcellulose) (HPC) 93 % of control | dose: 200.0 mg/kg/injection, schedule: Q01DX009 (ip), vehicle: Klucel (hydroxypropylcellulose) (HPC) 96 % of control | dose: 400.0 mg/kg/injection, schedule: Q01DX009 (ip), vehicle: Klucel (hydroxypropylcellulose) (HPC) 95 % of control

COc1ccc(NC(=O)c2ccco2)cc1
inactive: [6] 123 % of control | [7] 112 % of control | [10] 123 % of control

CCNC(=O)N(O)C1(C#N)CCCCC1
inactive: [11] 98 % of control | [12] 96 % of control | [13] 98 % of control

NNC(=O)CNc1cccc(Cl)c1
inactive: [6] 101 % of control | [7] 108 % of control

CC(=O)Nc1cc(Cl)cc2c1-c1c(Cl)cc(Cl)cc1C2=O
inactive: [2] 98 % of control | [3] 94 % of control | [4] 94 % of control | [5] 91 % of control

CN(C)CCS(=O)(=O)c1ccc(Cl)cc1
inactive: dose: 100.0 mg/kg/injection, schedule: Q04DX002 (ip), vehicle: saline 102 % of control | dose: 200.0 mg/kg/injection, schedule: Q04DX002 (ip), vehicle: saline 109 % of control | dose: 400.0 mg/kg/injection, schedule: Q04DX002 (ip), vehicle: saline 98 % of control

c1ccc(N/N=C2/CSCc3ccccc32)cc1
inactive: dose: 100.0 mg/kg/injection, schedule: Q01DX001 (ip), vehicle: saline with Tween-80 97 % of control | dose: 200.0 mg/kg/injection, schedule: Q01DX001 (ip), vehicle: saline with Tween-80 95 % of control | dose: 400.0 mg/kg/injection, schedule: Q01DX001 (ip), vehicle: saline with Tween-80 106 % of control

Oc1c(Br)cc(Br)cc1C=NCC1CCC(CN=Cc2cc(Br)cc(Br)c2O)CC1 (stereo unspecified)
inactive: dose: 100.0 mg/kg/injection, schedule: Q01DX009 (ip), vehicle: saline with Tween-80 92 % of control | dose: 100.0 mg/kg/injection, schedule: Q04DX002 (ip), vehicle: saline with Tween-80 110 % of control and 90 % of control | dose: 200.0 mg/kg/injection, schedule: Q04DX002 (ip), vehicle: saline with Tween-80 96 % of control and 90 % of control | dose: 400.0 mg/kg/injection, schedule: Q01DX009 (ip), vehicle: saline with Tween-80 92 % of control and 94 % of control | dose: 400.0 mg/kg/injection, schedule: Q04DX002 (ip), vehicle: saline with Tween-80 106 % of control and 90 % of control

O=c1c2ccccc2nc(CCN(CCCl)CCCl)n1-c1ccc(Cl)cc1
inactive: dose: 150.0 mg/kg/injection, schedule: Q04DX002 (ip), vehicle: Klucel (hydroxypropylcellulose) (HPC) 92 % of control | [7] 98 % of control | [10] 106 % of control

CCc1nnc2cc(C)ccn12
inactive: [11] 98 % of control | dose: 100.0 mg/kg/injection, schedule: Q04DX003 (ip), vehicle: other 98 % of control | [12] 107 % of control | dose: 200.0 mg/kg/injection, schedule: Q04DX003 (ip), vehicle: other 98 % of control | [13] 107 % of control
